Data on 3 compounds can be found in PubChem BioAssay AID1259407 (Chemical Carcinogenesis Research Information System (CCRIS), 2018).

Structures are written as SMILES. The source made the active and inactive calls. The rule behind the calls is not given here.

The series concerns CCRIS mutagenicity, Ames/micronucleus/aberration tests. The experiment in a line: CCRIS mutagenicity studies.
Where [1] appears, read: Test System: AMES SALMONELLA TYPHIMURIUM, Strain/Indicator: TA100, Metabolic Activation: NONE, Method: STANDARD PLATE.
The mark [2] stands for this setting: Test System: AMES SALMONELLA TYPHIMURIUM, Strain/Indicator: TA100, Metabolic Activation: RAT, LIVER, S-9, AROCLOR 1254, Method: STANDARD PLATE.
Setting [3] is: Test System: AMES SALMONELLA TYPHIMURIUM, Strain/Indicator: TA97, Metabolic Activation: NONE, Method: STANDARD PLATE.
Setting [4] is: Test System: AMES SALMONELLA TYPHIMURIUM, Strain/Indicator: TA98, Metabolic Activation: NONE, Method: STANDARD PLATE.

As for `ClC(Cl)=C(Cl)C(Cl)=C(Cl)Cl`, the mutagenic call reads like this: (End Point: IN VITRO CHROMOSOMAL ABERRATIONS, Test System: CHINESE HAMSTER OVARY CELLS, Metabolic Activation: NONE) “inactive; negative”; (End Point: IN VITRO CHROMOSOMAL ABERRATIONS, Test System: CHINESE HAMSTER OVARY CELLS, Metabolic Activation: RAT, LIVER, S-9, AROCLOR 1254) “inactive; negative”; (End Point: IN VITRO CHROMOSOMAL ABERRATIONS, Test System: CHL/IU CELLS, Metabolic Activation: NONE) “active; positive (structural changes)”; (End Point: IN VITRO MICRONUCLEUS, Test System: CHL/IU CELLS, Metabolic Activation: NONE) “active; positive”; (Test System: AMES SALMONELLA TYPHIMURIUM, Strain/Indicator: TA100, Metabolic Activation: NONE, Method: PREINCUBATION) “inactive; negative”; under setting [1], “active; positive”. In addition, the mutagenic call by setting is: (Test System: AMES SALMONELLA TYPHIMURIUM, Strain/Indicator: TA100, Metabolic Activation: RAT, LIVER, MICROSOMES AND GLUTATHIONE, Method: PREINCUBATION) “active; positive”; (Test System: AMES SALMONELLA TYPHIMURIUM, Strain/Indicator: TA100, Metabolic Activation: RAT, LIVER, S-9, AROCLOR 1254 (30%), Method: PREINCUBATION) “active; positive”; under setting [2], “active; positive”.
As to `ClCC(CCl)(CCl)CCl`, the mutagenic call by setting is: under setting [3], “inactive; negative”; under setting [4], “inactive; negative”; (Test System: AMES SALMONELLA TYPHIMURIUM, Strain/Indicator: TA98, Metabolic Activation: RAT, LIVER, S-9, AROCLOR, Method: STANDARD PLATE) “inactive; negative”; under setting [1], “inactive; negative”; (Test System: AMES SALMONELLA TYPHIMURIUM, Strain/Indicator: TA100, Metabolic Activation: RAT, LIVER, S-9, AROCLOR, Method: STANDARD PLATE) “inactive; negative”; (Test System: AMES SALMONELLA TYPHIMURIUM, Strain/Indicator: TA1535, Metabolic Activation: NONE, Method: STANDARD PLATE) “inactive; negative”. For the same compound, the mutagenic call by setting is: (Test System: AMES SALMONELLA TYPHIMURIUM, Strain/Indicator: TA1537, Metabolic Activation: NONE, Method: STANDARD PLATE) “inactive; negative”; (Test System: AMES SALMONELLA TYPHIMURIUM, Strain/Indicator: TA1538, Metabolic Activation: NONE, Method: STANDARD PLATE) “inactive; negative”; (Test System: AMES SALMONELLA TYPHIMURIUM, Strain/Indicator: TA2637, Metabolic Activation: NONE, Method: STANDARD PLATE) “inactive; negative”.
Regarding `CCC(CCC(C)=O)COC(=O)c1ccccc1C(=O)O` (stereo not given), the mutagenic call is, setting by setting: under setting [3], “inactive; negative”; (Test System: AMES SALMONELLA TYPHIMURIUM, Strain/Indicator: TA97, Metabolic Activation: RAT, LIVER, S-9, AROCLOR 1254, Method: STANDARD PLATE) “inactive; negative”; (Test System: AMES SALMONELLA TYPHIMURIUM, Strain/Indicator: TA97, Metabolic Activation: RAT, LIVER, S-9, DI(2-ETHYLHEXYL)PHTHALATE, Method: STANDARD PLATE) “inactive; negative”; under setting [4], “inactive; negative”; (Test System: AMES SALMONELLA TYPHIMURIUM, Strain/Indicator: TA98, Metabolic Activation: RAT, LIVER, S-9, AROCLOR 1254, Method: STANDARD PLATE) “inactive; negative”; (Test System: AMES SALMONELLA TYPHIMURIUM, Strain/Indicator: TA98, Metabolic Activation: RAT, LIVER, S-9, DI(2-ETHYLHEXYL)PHTHALATE, Method: STANDARD PLATE) “inactive; negative”. For the same compound, the mutagenic call runs as follows: under setting [1], “inactive; negative”; under setting [2], “inactive; negative”; (Test System: AMES SALMONELLA TYPHIMURIUM, Strain/Indicator: TA100, Metabolic Activation: RAT, LIVER, S-9, DI(2-ETHYLHEXYL)PHTHALATE, Method: STANDARD PLATE) “inactive; negative”; (Test System: AMES SALMONELLA TYPHIMURIUM, Strain/Indicator: TA102, Metabolic Activation: NONE, Method: STANDARD PLATE) “inactive; negative”; (Test System: AMES SALMONELLA TYPHIMURIUM, Strain/Indicator: TA102, Metabolic Activation: RAT, LIVER, S-9, AROCLOR 1254, Method: STANDARD PLATE) “inactive; negative”; (Test System: AMES SALMONELLA TYPHIMURIUM, Strain/Indicator: TA102, Metabolic Activation: RAT, LIVER, S-9, DI(2-ETHYLHEXYL)PHTHALATE, Method: STANDARD PLATE) “inactive; negative”.
